Source: ChEMBL document CHEMBL4028801, “A multifactorial approach to hepatobiliary transporter assessment enables improved therapeutic compound development” (Toxicol Sci, 2013)
Blank lines part the entries; values can stand above or below the molecule they belong to.

Tests used:
[1] = Ratio of drug concentration at steady state in human at 200 mg, po QD after 24 hrs to IC50 for human BSEP overexpressed in Sf9 insect cells; format: ADME, organism-based; details: in vivo
[2] = Ratio of drug concentration at steady state in human at 200 mg, po QD after 24 hrs to IC50 for human MRP4 overexpressed in Sf9 insect cells; format: ADME, organism-based; details: in vivo
[3] = AUC in human at 200 mg, po QD after 24 hrs; format: ADME, organism-based; design: time < 24 hr, dose 200 mg, route oral; details: in vivo
[4] = biological target: ATP-binding cassette sub-family C member 2 (Homo sapiens, UniProt Q92887); assay: Inhibition of human MRP2 overexpressed in Sf9 cell membrane vesicles assessed as uptake of [3H]-estradiol-17beta-D-glucuronide in presence of ATP and GSH measured after 20 mins by membrane vesicle transport assay
[5] = biological target: T1, ATP-binding cassette sub-family C member 4 (Homo sapiens, UniProt O15439); assay: Inhibition of human MRP4 overexpressed in Sf9 cell membrane vesicles assessed as uptake of [3H]-estradiol-17beta-D-glucuronide in presence of ATP and GSH measured after 20 mins by membrane vesicle transport assay; format: ADME, cell-based
T1 sequence (O15439 whole entry): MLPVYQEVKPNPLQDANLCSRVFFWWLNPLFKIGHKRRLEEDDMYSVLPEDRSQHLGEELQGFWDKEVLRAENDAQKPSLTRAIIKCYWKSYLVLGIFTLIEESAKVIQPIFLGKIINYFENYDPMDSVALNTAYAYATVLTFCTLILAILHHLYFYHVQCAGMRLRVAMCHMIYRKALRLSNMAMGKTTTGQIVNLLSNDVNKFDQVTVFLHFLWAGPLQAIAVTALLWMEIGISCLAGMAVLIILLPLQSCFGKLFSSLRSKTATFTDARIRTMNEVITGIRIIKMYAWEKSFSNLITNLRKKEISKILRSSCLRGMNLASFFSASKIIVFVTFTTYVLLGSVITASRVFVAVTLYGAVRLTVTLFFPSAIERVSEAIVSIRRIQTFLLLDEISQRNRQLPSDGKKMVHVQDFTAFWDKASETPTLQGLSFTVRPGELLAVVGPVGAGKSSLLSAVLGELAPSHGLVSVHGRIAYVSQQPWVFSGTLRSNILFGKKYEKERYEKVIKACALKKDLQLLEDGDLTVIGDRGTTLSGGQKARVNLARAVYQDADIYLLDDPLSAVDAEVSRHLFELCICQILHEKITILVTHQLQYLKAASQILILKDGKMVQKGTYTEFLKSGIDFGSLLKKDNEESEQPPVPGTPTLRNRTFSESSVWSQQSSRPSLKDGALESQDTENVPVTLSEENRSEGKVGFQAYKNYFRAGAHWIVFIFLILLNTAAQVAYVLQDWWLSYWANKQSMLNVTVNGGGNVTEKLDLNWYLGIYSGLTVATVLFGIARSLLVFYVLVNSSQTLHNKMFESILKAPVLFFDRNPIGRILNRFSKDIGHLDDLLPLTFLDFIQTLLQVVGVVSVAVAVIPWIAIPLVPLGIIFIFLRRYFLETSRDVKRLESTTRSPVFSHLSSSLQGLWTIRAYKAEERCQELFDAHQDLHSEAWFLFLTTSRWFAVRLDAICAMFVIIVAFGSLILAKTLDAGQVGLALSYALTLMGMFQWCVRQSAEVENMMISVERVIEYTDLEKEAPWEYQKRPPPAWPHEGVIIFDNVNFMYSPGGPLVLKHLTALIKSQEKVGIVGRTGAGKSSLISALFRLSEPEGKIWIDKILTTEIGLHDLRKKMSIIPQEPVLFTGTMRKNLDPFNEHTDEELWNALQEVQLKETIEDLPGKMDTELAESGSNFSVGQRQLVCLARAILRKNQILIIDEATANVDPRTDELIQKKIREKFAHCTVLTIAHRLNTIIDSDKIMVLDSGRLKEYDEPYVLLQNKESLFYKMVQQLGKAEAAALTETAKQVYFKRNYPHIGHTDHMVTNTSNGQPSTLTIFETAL

[6] = Drug concentration at steady state in human at 200 mg, po QD after 24 hrs; format: ADME, organism-based; details: in vivo, read-out: Css
[7] = biological target: ATP-binding cassette sub-family C member 3 (Homo sapiens, UniProt O15438); assay: Inhibition of human MRP3 overexpressed in Sf9 insect cell membrane vesicles assessed as uptake of [3H]-estradiol-17beta-D-glucuronide in presence of ATP and GSH measured after 10 mins by membrane vesicle transport assay; format: ADME, cell-based
[8] = AUC in human at 200 to 600 mg, po QD after 24 hrs; format: ADME, organism-based; details: in vivo
[9] = Drug concentration at steady state in human at 200 to 600 mg, po QD after 24 hrs; format: ADME, organism-based; details: in vivo, read-out: Css
[10] = Ratio of drug concentration at steady state in human at 200 to 600 mg, po QD after 24 hrs to IC50 for human MRP3 overexpressed in Sf9 insect cells; format: ADME, organism-based; details: in vivo
Bile salt export pump = Bile salt export pump (Homo sapiens, UniProt O95342); assay: Inhibition of human BSEP overexpressed in Sf9 cell membrane vesicles assessed as uptake of [3H]-taurocholate in presence of ATP measured after 15 to 20 mins by membrane vesicle transport assay; format: ADME, cell-based
[11] = Ratio of drug concentration at steady state in human at 200 to 600 mg, po QD after 24 hrs to IC50 for human BSEP overexpressed in Sf9 insect cells; format: ADME, organism-based; details: in vivo
[12] = Ratio of drug concentration at steady state in human at 200 to 600 mg, po QD after 24 hrs to IC50 for human MRP4 overexpressed in Sf9 insect cells; format: ADME, organism-based; details: in vivo
[13] = Ratio of drug concentration at steady state in human at 1250 mg, po QD after 24 hrs to IC50 for human BSEP overexpressed in Sf9 insect cells; format: ADME, organism-based; details: in vivo
[14] = AUC in human at 1250 mg, po QD after 24 hrs; format: ADME, organism-based; design: time < 24 hr, dose 1250 mg, route oral; details: in vivo
[15] = Drug concentration at steady state in human at 1250 mg, po QD after 24 hrs; format: ADME, organism-based; details: in vivo, read-out: Css
[16] = Drug concentration at steady state in human at 2 g, po QD after 24 hrs; format: ADME, organism-based; details: in vivo, read-out: Css
[17] = Ratio of drug concentration at steady state in human at 2 g, po QD after 24 hrs to IC50 for human BSEP overexpressed in Sf9 insect cells; format: ADME, organism-based; details: in vivo
[18] = AUC in human at 2 g, po QD after 24 hrs; format: ADME, organism-based; design: dose 2 g, time < 24 hr, route oral; details: in vivo
[19] = AUC in human at 400 to 1200 mg, po TID after 8 hrs; format: ADME, organism-based; details: in vivo
[20] = Drug concentration at steady state in human at 400 to 1200 mg, po TID after 8 hrs; format: ADME, organism-based; details: in vivo, read-out: Css

ATP-binding cassette sub-family C member 3, sequence (O15438 whole entry): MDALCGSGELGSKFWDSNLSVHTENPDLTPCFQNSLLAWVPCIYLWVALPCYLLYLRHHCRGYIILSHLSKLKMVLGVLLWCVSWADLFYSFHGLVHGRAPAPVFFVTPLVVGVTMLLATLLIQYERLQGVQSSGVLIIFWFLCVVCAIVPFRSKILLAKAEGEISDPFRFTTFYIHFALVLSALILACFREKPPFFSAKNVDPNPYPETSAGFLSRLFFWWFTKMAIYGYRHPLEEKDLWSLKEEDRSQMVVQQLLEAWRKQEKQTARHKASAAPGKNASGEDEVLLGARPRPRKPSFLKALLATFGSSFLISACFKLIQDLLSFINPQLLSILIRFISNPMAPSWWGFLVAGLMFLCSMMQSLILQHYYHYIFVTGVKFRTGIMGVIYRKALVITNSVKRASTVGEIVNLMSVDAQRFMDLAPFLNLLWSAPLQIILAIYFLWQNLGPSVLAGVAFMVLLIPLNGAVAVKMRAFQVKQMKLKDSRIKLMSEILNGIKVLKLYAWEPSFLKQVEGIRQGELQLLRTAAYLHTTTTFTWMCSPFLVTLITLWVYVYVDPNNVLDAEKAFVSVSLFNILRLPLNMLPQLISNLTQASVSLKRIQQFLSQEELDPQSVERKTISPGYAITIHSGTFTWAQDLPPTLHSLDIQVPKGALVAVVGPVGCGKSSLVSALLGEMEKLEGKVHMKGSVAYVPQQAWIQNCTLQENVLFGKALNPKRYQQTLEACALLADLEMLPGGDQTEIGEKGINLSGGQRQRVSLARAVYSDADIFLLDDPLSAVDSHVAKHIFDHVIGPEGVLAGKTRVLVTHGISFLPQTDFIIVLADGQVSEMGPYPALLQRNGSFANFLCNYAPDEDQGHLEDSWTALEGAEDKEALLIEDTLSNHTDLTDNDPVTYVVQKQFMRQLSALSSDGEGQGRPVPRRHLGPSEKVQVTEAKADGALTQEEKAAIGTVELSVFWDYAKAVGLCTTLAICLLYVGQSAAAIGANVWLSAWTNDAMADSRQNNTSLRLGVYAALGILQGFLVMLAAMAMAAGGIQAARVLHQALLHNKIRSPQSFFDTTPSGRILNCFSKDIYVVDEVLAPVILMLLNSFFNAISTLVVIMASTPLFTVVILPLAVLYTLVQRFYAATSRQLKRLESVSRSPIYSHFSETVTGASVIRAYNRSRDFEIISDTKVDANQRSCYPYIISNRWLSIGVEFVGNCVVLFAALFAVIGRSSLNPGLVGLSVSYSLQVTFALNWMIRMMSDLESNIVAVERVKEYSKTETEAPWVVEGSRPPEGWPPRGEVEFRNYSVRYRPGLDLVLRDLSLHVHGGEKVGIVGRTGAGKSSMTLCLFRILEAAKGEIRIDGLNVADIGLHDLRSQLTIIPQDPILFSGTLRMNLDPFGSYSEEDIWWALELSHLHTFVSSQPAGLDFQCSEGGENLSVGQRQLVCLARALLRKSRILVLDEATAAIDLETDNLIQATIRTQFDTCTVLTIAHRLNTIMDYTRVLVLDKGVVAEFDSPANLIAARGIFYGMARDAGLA
ATP-binding cassette sub-family C member 2, sequence (Q92887 whole entry): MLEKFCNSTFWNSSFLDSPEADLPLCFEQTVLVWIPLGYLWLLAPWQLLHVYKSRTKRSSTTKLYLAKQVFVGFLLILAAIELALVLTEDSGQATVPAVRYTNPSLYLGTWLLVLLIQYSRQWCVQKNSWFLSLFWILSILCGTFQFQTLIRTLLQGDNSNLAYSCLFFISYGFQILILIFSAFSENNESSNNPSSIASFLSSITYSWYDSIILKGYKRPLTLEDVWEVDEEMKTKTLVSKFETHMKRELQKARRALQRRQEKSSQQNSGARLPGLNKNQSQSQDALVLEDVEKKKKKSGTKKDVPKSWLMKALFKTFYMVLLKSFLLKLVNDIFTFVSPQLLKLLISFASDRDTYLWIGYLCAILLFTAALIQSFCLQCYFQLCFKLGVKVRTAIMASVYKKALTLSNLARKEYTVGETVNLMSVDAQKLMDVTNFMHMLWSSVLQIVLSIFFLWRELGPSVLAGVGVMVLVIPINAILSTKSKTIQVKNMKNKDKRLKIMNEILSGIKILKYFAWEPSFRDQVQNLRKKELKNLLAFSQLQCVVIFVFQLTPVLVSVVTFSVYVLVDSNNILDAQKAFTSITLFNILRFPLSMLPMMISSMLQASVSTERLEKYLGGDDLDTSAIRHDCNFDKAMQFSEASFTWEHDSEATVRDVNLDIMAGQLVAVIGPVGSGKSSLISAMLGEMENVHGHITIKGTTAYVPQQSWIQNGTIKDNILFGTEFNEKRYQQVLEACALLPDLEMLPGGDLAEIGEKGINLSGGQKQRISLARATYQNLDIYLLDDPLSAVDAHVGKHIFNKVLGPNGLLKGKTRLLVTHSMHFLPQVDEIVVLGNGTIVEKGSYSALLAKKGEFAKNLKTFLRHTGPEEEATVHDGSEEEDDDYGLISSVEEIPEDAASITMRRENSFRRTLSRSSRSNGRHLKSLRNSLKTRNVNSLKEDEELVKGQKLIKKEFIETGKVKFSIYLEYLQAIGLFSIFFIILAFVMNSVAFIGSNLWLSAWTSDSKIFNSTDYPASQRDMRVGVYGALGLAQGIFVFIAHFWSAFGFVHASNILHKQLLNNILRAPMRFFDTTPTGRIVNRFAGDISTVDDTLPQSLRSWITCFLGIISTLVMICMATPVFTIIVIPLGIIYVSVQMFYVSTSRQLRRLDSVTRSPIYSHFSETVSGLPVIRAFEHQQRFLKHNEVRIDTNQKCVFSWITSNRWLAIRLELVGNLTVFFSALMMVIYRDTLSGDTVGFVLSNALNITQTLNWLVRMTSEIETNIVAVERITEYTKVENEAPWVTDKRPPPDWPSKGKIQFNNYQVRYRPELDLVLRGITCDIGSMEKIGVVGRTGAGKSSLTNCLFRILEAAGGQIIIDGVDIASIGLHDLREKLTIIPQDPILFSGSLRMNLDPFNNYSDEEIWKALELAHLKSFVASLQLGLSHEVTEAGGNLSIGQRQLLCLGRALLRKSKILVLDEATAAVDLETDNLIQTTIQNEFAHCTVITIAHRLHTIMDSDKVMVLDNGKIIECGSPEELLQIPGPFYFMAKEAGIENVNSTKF
Bile salt export pump, sequence (O95342 whole entry): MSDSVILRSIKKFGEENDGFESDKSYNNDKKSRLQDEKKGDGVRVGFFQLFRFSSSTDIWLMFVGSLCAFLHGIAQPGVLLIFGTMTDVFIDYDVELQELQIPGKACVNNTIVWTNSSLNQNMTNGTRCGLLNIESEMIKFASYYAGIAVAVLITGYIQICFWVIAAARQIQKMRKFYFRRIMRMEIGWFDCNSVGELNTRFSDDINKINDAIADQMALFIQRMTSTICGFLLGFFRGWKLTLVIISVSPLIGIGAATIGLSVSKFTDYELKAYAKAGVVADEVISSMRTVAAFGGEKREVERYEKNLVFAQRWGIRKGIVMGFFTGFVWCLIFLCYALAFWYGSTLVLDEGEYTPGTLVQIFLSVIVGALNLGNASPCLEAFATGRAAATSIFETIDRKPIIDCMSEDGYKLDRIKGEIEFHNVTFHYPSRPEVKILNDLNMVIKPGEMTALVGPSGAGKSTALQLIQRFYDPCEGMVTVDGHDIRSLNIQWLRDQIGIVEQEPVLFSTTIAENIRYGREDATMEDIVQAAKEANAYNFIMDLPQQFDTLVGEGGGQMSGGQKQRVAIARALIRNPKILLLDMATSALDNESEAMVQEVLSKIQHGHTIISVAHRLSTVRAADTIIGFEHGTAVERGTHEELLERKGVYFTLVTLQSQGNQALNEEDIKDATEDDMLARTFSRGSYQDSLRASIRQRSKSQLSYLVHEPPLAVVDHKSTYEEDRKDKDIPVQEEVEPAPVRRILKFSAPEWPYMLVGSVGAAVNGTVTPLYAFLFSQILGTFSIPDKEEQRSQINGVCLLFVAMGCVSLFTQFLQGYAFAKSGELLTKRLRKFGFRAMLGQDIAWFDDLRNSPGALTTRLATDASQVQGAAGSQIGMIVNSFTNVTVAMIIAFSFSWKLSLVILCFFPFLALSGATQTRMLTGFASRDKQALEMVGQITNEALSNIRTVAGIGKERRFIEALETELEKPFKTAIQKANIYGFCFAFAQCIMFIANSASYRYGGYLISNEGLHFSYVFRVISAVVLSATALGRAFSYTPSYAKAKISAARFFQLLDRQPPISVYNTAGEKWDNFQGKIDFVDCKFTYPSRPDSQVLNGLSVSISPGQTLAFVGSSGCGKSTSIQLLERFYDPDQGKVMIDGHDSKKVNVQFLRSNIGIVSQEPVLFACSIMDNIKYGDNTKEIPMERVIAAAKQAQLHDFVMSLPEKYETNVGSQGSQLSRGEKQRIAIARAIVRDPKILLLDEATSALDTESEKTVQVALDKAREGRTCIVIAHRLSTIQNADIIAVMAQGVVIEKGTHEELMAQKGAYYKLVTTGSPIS

SMILES: CC(=O)N1CCN(c2ccc(OCC3COC(Cn4ccnc4)(c4ccc(Cl)cc4Cl)O3)cc2)CC1 (stereo not drawn) [KETOCONAZOLE]
Ratio [1]: 0.381 | Ratio [2]: 0.019 | AUC at 24 h [3]: 31.1 µM·h | IC50 [4]: > 133 µM | IC50 [5]: 69 µM | concentration at 24 h [6]: 1.29 µM | IC50 [7]: > 133 µM

AUC at 24 h [8]: 22.5 µM·h | concentration at 24 h [9]: 0.939 µM | Ratio [10]: 0.03 | IC50 [5]: 61 µM | Ratio [12]: 0.015 | IC50 [7]: 31 µM
SMILES: Cc1c(C)c2c(c(C)c1O)CCC(C)(COc1ccc(CC3SC(=O)NC3=O)cc1)O2 (stereo not drawn) [TROGLITAZONE]
IC50 (Bile salt export pump): 3 µM | Ratio [11]: 0.313

SMILES: CS(=O)(=O)CCNCc1ccc(-c2ccc3ncnc(Nc4ccc(OCc5cccc(F)c5)c(Cl)c4)c3c2)o1.Cc1ccc(S(=O)(=O)O)cc1
Ratio [13]: 0.4 | IC50 [4]: > 133 µM | AUC at 24 h [14]: 62.3 µM·h | concentration at 24 h [15]: 2.6 µM | IC50 [5]: > 133 µM | IC50 [7]: > 133 µM

concentration at 24 h [16]: 27.1 µM | IC50 [4]: > 133 µM | IC50 [5]: > 133 µM | AUC at 24 h [18]: 649 µM·h | IC50 [7]: > 133 µM
SMILES: CCOC(=O)C(C)(C)Oc1ccc(Cl)cc1 [CLOFIBRATE]
Ratio [17]: 0.381 | IC50 (Bile salt export pump): 71 µM

SMILES: CC(C)(C)NC(=O)[C@@H]1C[C@@H]2CCCC[C@@H]2CN1C[C@@H](O)[C@H](Cc1ccccc1)NC(=O)[C@H](CC(N)=O)NC(=O)c1ccc2ccccc2n1
AUC at 8 h [19]: 9.69 µM·h | IC50 [4]: > 133 µM | concentration at 8 h [20]: 1.21 µM | IC50 [5]: 59 µM | IC50 [7]: 42 µM
